# From publication PMC8230474, “Synthesis of Novel Acyl Derivatives of 3-(4,5,6,7-Tetrabromo-1H-benzimidazol-1-yl)propan-1-ols—Intracellular TBBi-Based CK2 Inhibitors with Proapoptotic Properties” (International Journal of Molecular Sciences, 2021)
# Legend:
# Assay type in all cases: cell-based, human
# [1] = tested on: MCF-7 cells; experiment: Cleaved PARP1 Western blot, MCF-7; conditions: MCF-7, 72 h treatment, compound at its EC50
# Experimental: In order to evaluate the proapoptotic properties of the newly synthesized derivatives, we analyzed the level of cleaved PARP1 [c-PARP1, nuclear poly (ADP-ribose) polymerase 1], the hallmark of apoptotic cells.
# Considering the lack of significant effect of the tested compounds in MCF-7 cells after 24-h treatment, we additionally evaluated c-PARP1 level in this cell line after 72 h of treatment. […] It should be noted that the highest level of c-PARP up to almost 20-fold higher than in the control was detected in the cell culture treated with a derivative 6b.
# The MCF-7 cells growing exponentially were seeded at 4.8 × 10^5 cells in 6-cm-diameter plates. Subsequently, compounds were added in a final concentration of 0.5% DMSO. […] The protein concentration was determined using Bradford assay. […] Equal amounts of total protein (10 to 20 μg) were analyzed by SDS-PAGE, and subsequently, Western blotting was performed using primary antibodies in blocking buffer containing either 3% BSA (bovine serum albumin) or 3% milk in TBS-T (Tris-buffered saline (10 mM Tris-HCl (pH 8), 150 mM NaCl) containing 0.1% Tween 20 or 0.2% Triton X-100) for 1 h. […]
# (§1) For densitometry, immunoblots were quantified using the Fiji distribution of the ImageJ 1.52a software (National Institutes of Health, Bethesda, MD, USA, and the University of Wisconsin, Madison, WI, USA). […]
# [2] = tested on: MCF-7 cells; experiment: Annexin V-FITC/PI flow cytometry, MCF-7; conditions: MCF-7, 72-h treatment, compound at its EC50
# Experimental: Additionally, assaying annexin V-binding to phosphatidylserine by means of flow cytometry confirmed that derivatives 3c and 6a–c induced apoptosis in both cell lines (Figure 9, Figure S3).
# MCF-7 cells were seeded in six-well plates at 1.5 × 10^5 cells/well. […] Then, the plates were incubated for 24 h or 72 h. After exposure to the examined compounds, the floating cells were collected, and monolayer cell culture was trypsinized. The cells were centrifugated at 200× g at 4 °C for 5 min, washed twice in cold phosphate-buffered saline (PBS), and subsequently suspended in binding buffer at 1 × 10^6 cells/mL. Subsequently, 100-μL aliquots of the cell suspension were labeled according to the kit manufacturer’s instructions. Briefly, annexin V-fluorescein isothiocyanate and propidium iodide (BD Biosciences, Pharmingen, San Diego, CA, USA) were added to the cell suspension, and the mixture was vortexed and then incubated for 15 min at RT in the dark. A cold binding buffer (900 μL) was then added and the cells were vortexed again and kept on ice. Flow cytometric measurements were performed within 1 h after labeling. Viable, necrotic, early, and late apoptotic cells were detected by flow cytometry using CyFlow Cube 8 (Sysmex, Norderstedt, Germany) flow cytometer.
# [3] = tested on: protein kinase CK2 in MDA-MB-231 cells; experiment: Intracellular inhibition of CK2, Western blot of p-Ser529 p65 and p-Ser129 Akt1, MDA-MB-231; conditions: MDA-MB-231, 24 h treatment, compound at its 72-h EC50, relative to untreated control
# Description: We observed an inhibition of CK2 in both cell lines; however, the lower efficiency of CK2 inhibition was detected in MCF-7 considering the extent of Akt1 phosphorylation. The relative level of the phosphorylation of the tested proteins in MDA-MB-231 cells was in the range of 0.32 to 0.80 for p-Ser529 p65 and 0.41 to 0.73 for p-Ser129 Akt1, whereas in MCF-7 cells it was in the range of 0.33 to 0.78 for p-Ser529 p65 and 0.82 to 1.23 for p-Ser129 Akt1, respectively. The lowest phosphorylation levels of the tested proteins were detected in MDA-MB-231 cells for compound 6b with the relative level of 0.41 for Ser129 Akt1 as well as for compound 6c with the relative level of 0.32 for p-Ser529 p65. Among the tested proteins, the lowest extent of phosphorylation in MCF-7 cells was detected for 6b with the relative level of 0.33 for p-Ser529 p65, and for 6a with the relative level of 0.82 for Ser129 Akt1.
# The MCF-7 cells growing exponentially were seeded at 4.8 × 10^5 cells in 6-cm-diameter plates. Subsequently, compounds were added in a final concentration of 0.5% DMSO. […] The protein concentration was determined using Bradford assay. […]
# as §1
SMILES,level of c-PARP1 relative to control [1],apoptotic cells (early and late apoptosis) [2],relative level of p-Ser129 Akt1 [3]
"CCCCCC(=O)OCCCn1c(C)nc2c(Br)c(Br)c(Br)c(Br)c21 [Compound 6b, (4,5,6,7-Tetrabromo-2-methyl-1H-benzimidazol-1-yl)propyl hexanoate]",~20 fold,57.5%,0.41
"CCCCCCCC(=O)OCCCn1cnc2c(Br)c(Br)c(Br)c(Br)c21 [Compound 3c, 3-(4,5,6,7-Tetrabromo-1H-benzimidazol-1-yl)propyl octanoate]",significant increase,–,–
